Test results taken from US20150250765A1, “NITAZOXANIDE AND MEBENDAZOLE SYNERGIC COMPOSITION, PROCESSES FOR THE PREPARATION THEREOF, AND USE OF SAID COMPOSITION FOR THE TREATMENT OF HUMAN PARASITOSIS” (priority 2012, published 2015).

Tests used:
L4 helminth larvae = assay: scale of larval motility; assay type: cell-based, trichuris spp; design: key: 0=death; 1=very low motility; 2=low motility; 3=normal motility; settings: L4 helminth larvae in culture with drug; scale 0 to 3 points
Experimental: The rats of the Sprague-Dawley vivarium strain, parasites naive, were infected with different kinds of […]. Trichuria trichuris infected eggs). Approximately 3 g of feces were placed in culture bottles. The feces were cultured to produce worms or larvae (L4 stage) at a temperature of 37° C. for 72 hours. In order to determine the in vitro anthelmintic effectiveness the larval migration inhibition test was used. […] The tubes were incubated at 37° C. for 16 hours. The total content of these tubes, 0.5 ml, was transferred to the filters located within the acrylic tubes and grown at room temperature for 18 hours to allow the larvae to migrate through the filters within the chamber. Then, the filters were removed from the chambers and the total number of larvae in the filters and in chambers was counted. 2) Another method for the larval motility assessment was using the “scale of larval motility” in the various tubes with the different drugs and the control group. The scale of motility is a scale from 0 to 3 points, wherein 0=death; 1=very low motility; 2=low motility and 3=normal motility.

[1] = tested on: L4 (larva or adult worm) of different kinds of helminths (eg. trichuris spp); assay: inhibition of larval migration test; assay type: cell-based; settings: 100 μg/ml (combination: 50 μg/ml NTZX and 50 μg/ml MBDZ), 16 hours at 37° C., then 18 hours migration
Description: 1) In order to determine the in vitro anthelmintic effectiveness of the pharmaceutical combination of NTZX and MBDZ the “inhibition of larval migration test” was used, which was developed by […] et al. (1992) and modified by Rable et al. (1994) and Paolini et al. 2004). […] The rats of the Sprague-Dawley vivarium strain, parasites naive, were infected with different kinds of […]. Trichuria trichuris infected eggs). Approximately 3 g of feces were placed in culture bottles. The feces were cultured to produce worms or larvae (L4 stage) at a temperature of 37° C. for 72 hours. In order to determine the in vitro anthelmintic effectiveness the larval migration inhibition test was used. […] The tubes were incubated at 37° C. for 16 hours. The total content of these tubes, 0.5 ml, was transferred to the filters located within the acrylic tubes and grown at room temperature for 18 hours to allow the larvae to migrate through the filters within the chamber. Then, the filters were removed from the chambers and the total number of larvae in the filters and in chambers was counted. The larval migration inhibition (LMI) was determined using the following formula: [formula] Wherein A=larvae migrated ratio in the control and B=larvae migrated ratio in the treatments.

[2] = tested on: Giardia intestinalis trophozoites; assay: in vitro antiprotozoal effectiveness in intestinal Giardia culture (morphology, adhesion, viability of trophozoites); settings: for Mobility Ranking / Ranking of trophozoites adhesion: 2 μg/ml (combination 1 + 1 μg/ml)
Experimental: 1) The in vitro antiprotozoal effectiveness of the pharmaceutical combination of NTZX with […] was determined in an intestinal Giardia culture as compared with the NTZX and MBDZ active ingredients separately. In this study the morphology, the adhesion and the viability of the Giardias trophozoites was assessed in in vitro cultures.
The antiparasitic agents used were NTZX at a 2 μg/ml concentration; MBDZ at a 2 μg/ml concentration and a pharmaceutical combination of 1 μg/ml NTZX and 1 μg/ml MBDZ. The trophozoites were obtained from the intestines of rats (Sprague-Dawley vivarium strain) previously infected with Giardia intestinalis.
The trophozoites were isolated in a BI-S33 culture media containing 10% bovine serum without added antibiotic. From this media, 4.5 ml were extracted, which were separated in 8 glass tubes with screw caps. […] 4 of the tubes were exposed to the drugs for 4 hours and the other 4 tubes were exposed to the drugs for 24 hours. After the established periods of time were over (4 to 24 hours) the tubes underwent centrifugation (5 minutes at 500 rpm), where the supernatant was extracted and removed. The decanted material was then dyed with a 0.1% eosin solution to assess the viability of trophozoites: • a. The adhesion and growth uniformity of trophozoites was assessed, using an optical microscope in 5-10 fields (×100 and ×200). For this, a table was drafted describing the following:
• b. The trophozoites viability rate was assessed, by using a Neubauer camera to the optical microscope. The percentage of non-viable trophozoites was estimated as compared with the total state of trophozoites (live and immobile). • c. The mobility and morphology of the trophozoites was assessed. Mobility is divided into:
The normal morphology of trophozoites under the optical microscope is characterized by the following: unicellular organism, with pyriform morphology, bilateral symmetry, flagellated, bi-nucleated (vacuolar complex) on its dorsal face. Any change in morphology was correspondingly detailed.

[3] = 24 hours of exposure, optical microscope

Row | Structure (SMILES) | Motility scale (L4 helminth larvae) | parasites migration [1] | inhibition at 100 µg/mL ([1]; Trichuris, read-out: larval migration inhibition (LMI)) | Mobility Ranking ([2]; 4 hours of drug exposure) | Ranking of trophozoites adhesion ([2]; 4 hours of drug exposure) | Mobility Ranking ([2]; 24 hours of drug exposure) | Ranking of trophozoites adhesion ([2]; 24 hours of drug exposure) | microscopic morphological changes of trophozoites [2, 3] | larval migration inhibition (LMI) [1] | adhered trophozoites (in words) [2, 3] | mobility of trophozoites (in words) [2, 3]
1 | COC(=O)Nc1nc2ccc(C(=O)c3ccccc3)cc2[nH]1 [MBDZ, Mebendazole] | 1 | 30% | 70% | 2 | 4 (25-50) | 1 | 5 (50-100) | some trophozoites were globular, some folded, some of distorted forms (partial loss of bilateral symmetry) |  |  | 
2 | CC(=O)Oc1ccccc1C(=O)Nc1ncc([N+](=O)[O-])s1 [NTZX, Nitazoxanide] | 2 | 40% |  | 2 | 5 (50-100) | 1 | 7 (250-500) | globular trophozoites (very enlarged), a moderate amount of folded trophozoites and partial loss of dorsal vacuolar complex | 60% | The amount of adhered trophozoites was moderate | A low number of motile trophozoites (mostly in situ) and erratic movements
